Assay results from ChEMBL document CHEMBL1121396, “10,10-Difluoro-13-dehydroprostacyclin: a chemically and metabolically stabilized potent prostacyclin” (J Med Chem, 1980).

Columns and labels:
[1] = Tested for effect to cause relaxation of bovine coronary artery; format: functional, tissue-based, Bos taurus
[2] = Tested for effect to cause relaxation of […] mesenteric artery previously contracted by PGF2-alpha; format: functional

| EC50 [1] | EC50 [2] | SMILES |
| --- | --- | --- |
| 8.5 nM | 2.3 nM | CCCCC[C@H](O)C#CC1C2C/C(=C\CCCC(=O)O)OC2C(F)(F)C1O (some centres undefined) |
| 28 nM | 3.3 nM | CCCCC[C@H](O)/C=C/[C@@H]1[C@H]2C/C(=C/CCCC(=O)O)O[C@H]2C[C@H]1O [EPOPROSTENOL] |
